Experiments:
LATS1 = LATS1 (Homo sapiens (Human), UniProt O95835); assay: LATS1 biochemical assay (Table 1A, Compound Examples 1-290; method in the earlier part)
[1] = tested on: YAP nuclear translocation in HaCaT cells; assay: YAP Translocation Assay (HaCaT Cells); type: cell-based, human; conditions: Homo sapiens, 24 hours
Method: HaCaT cells were suspended at 0.4×10^6 cells/ml in DMEM+10% FBS with penicillin-streptomycin-glutamine. 50 μl of cells were dispensed into 384-well clear bottom assay plates (20,000 cells/well), and incubated overnight at 37° C. 100 nL test compound was transferred into the assay wells containing HaCaT cells using ECHO (Labcyte). After 24 hours incubation at 37° C., 7 μL of 32% PFA was dispensed into each well and incubated for 45 minutes at room temperature. Plates were washed 3 times with PBS, leaving 20 μL of PBS per well, then treated with 0.1% Triton and 1.5% BSA in PBS for 45 minutes at room temperature. Plates were washed for 5 times with PBS, leaving 20 μL of PBS per well. […] Plates were further washed 3 time with PBS, sealed and imaged on the high-content Opera imaging system (PerkinElmer).

Sequence of LATS1 (O95835 whole entry, looked up): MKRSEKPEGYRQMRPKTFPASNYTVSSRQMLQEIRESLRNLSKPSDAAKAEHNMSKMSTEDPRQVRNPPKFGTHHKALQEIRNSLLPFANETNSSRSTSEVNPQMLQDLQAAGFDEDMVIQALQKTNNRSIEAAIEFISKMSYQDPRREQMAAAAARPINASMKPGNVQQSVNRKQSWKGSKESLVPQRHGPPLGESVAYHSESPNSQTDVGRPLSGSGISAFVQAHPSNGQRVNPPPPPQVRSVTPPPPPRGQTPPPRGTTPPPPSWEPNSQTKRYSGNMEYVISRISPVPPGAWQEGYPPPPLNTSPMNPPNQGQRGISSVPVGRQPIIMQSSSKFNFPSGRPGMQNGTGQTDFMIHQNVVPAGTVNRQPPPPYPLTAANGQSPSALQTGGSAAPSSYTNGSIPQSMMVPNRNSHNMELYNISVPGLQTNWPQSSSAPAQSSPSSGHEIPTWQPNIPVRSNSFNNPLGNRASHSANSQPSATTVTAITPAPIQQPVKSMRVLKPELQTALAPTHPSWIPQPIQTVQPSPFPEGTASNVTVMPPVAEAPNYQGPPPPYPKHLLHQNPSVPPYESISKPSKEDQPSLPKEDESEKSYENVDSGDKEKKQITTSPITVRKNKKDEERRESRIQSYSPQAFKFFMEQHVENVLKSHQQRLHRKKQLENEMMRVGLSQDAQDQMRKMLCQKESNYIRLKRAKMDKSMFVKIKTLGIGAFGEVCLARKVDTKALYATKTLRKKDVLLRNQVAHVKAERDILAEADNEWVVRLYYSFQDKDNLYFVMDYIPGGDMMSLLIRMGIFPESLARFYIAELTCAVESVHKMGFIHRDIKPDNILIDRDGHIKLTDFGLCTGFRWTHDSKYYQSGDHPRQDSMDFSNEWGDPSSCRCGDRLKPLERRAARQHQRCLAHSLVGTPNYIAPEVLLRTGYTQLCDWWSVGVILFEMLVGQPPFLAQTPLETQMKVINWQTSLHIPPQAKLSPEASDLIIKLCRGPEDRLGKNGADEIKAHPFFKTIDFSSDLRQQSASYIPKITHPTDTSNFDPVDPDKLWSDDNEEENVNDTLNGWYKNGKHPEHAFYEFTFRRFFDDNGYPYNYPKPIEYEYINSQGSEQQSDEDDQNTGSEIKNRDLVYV
Sequence of LATS1 (Q7L9L4 whole entry partner, looked up): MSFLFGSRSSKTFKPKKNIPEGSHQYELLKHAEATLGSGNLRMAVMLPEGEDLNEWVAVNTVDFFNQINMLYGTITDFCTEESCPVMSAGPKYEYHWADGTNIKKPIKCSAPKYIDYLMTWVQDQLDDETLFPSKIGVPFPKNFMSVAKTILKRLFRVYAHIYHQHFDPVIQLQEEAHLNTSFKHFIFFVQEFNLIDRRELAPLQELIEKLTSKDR

Row | SMILES | IC50 (LATS1) [µM] | EC50 [1] [µM]
1 | Fc1ccc(Nc2nc(-c3ccncc3)nc3cnccc23)cc1 [Example 96, N-(4-fluorophenyl)-2-(pyridin-4-yl)pyrido[3,4-d]pyrimidin-4-amine] | > 1.7 | > 20
2 | CC1(C)CC(O)CCN1c1cc(-c2ccncc2)nc2cnccc12 (stereo not shown) [Example 262, 2,2-dimethyl-1-[2-(pyridin-4-yl)-1,7-naphthyridin-4-yl]piperidin-4-ol] | 0.003 | 0.311
3 | CC(C)(Nc1nc(-c2ccncc2)nc2cnccc12)C12CC3CC(CC(C3)C1)C2 [Example 42, N-[2-(adamantan-1-yl)propan-2-yl]-2-(pyridin-4-yl)pyrido[3,4-d]pyrimidin-4-amine] | 0.711 | 11.6
4 | CC1(Nc2nc(-c3ccnc(F)c3F)nc3cnccc23)CC1 [Example 148, 2-(2,3-difluoropyridin-4-yl)-N-(1-methylcyclopropyl)pyrido[3,4-d]pyrimidin-4-amine] | 0.168 | > 20
5 | COC(=O)CC1(Nc2nc(-c3ccncc3)nc3cnccc23)CC1 [Example 102, methyl 2-(1-{[2-(pyridin-4-yl)pyrido[3,4-d]pyrimidin-4-yl]amino}cyclopropyl)acetate] | 0.126 | 
6 | Cc1n[nH]cc1-c1nc(NC2(CO)CCC2)c2ccncc2n1 [Example 185, (1-{[2-(3-methyl-1H-pyrazol-4-yl)pyrido[3,4-d]pyrimidin-4-yl]amino}cyclobutyl)methanol] | 0.009 | 11.5
7 | Clc1cnccc1-c1nc(NC2CCCC2)c2ccncc2n1 [Example 126, 2-(3-chloropyridin-4-yl)-N-cyclopentylpyrido[3,4-d]pyrimidin-4-amine] | 0.053 | > 20
8 | CC(C)(CCS(C)(=O)=O)Nc1nc(-c2ccncc2Cl)nc2cnccc12 [Example 129, 2-(3-chloropyridin-4-yl)-N-(4-methanesulfonyl-2-methylbutan-2-yl)pyrido[3,4-d]pyrimidin-4-amine] | 0.187 | > 20
9 | CN(c1nc(-c2ccnn2C)nc2cnccc12)C1(C)CC1 [Example 169, N-methyl-2-(1-methyl-1H-pyrazol-5-yl)-N-(1-methylcyclopropyl)pyrido[3,4-d]pyrimidin-4-amine] | 0.098 | 
10 | Cc1cccc(Nc2nc(-c3ccncc3)nc3cnccc23)c1 [Example 93, N-(3-methylphenyl)-2-(pyridin-4-yl)pyrido[3,4-d]pyrimidin-4-amine] | 0.809 | > 20
11 | Cc1n[nH]cc1-c1nc(NC(C)c2ccncc2)c2ccncc2n1 (stereo not shown) [Example 190, 2-(3-methyl-1H-pyrazol-4-yl)-N-[1-(pyridin-4-yl)ethyl]pyrido[3,4-d]pyrimidin-4-amine] | 0.099 | > 20
12 | Fc1cnccc1-c1cc(N2CCOCC2)c2ccncc2n1 [Example 279, 2-(3-fluoropyridin-4-yl)-4-(morpholin-4-yl)-1,7-naphthyridine] | > 2.5 | > 20
13 | CC(C)(Nc1nc(-c2ccncc2)nc2cnccc12)C(=O)O [Example 34, 2-methyl-2-{[2-(pyridin-4-yl)pyrido[3,4-d]pyrimidin-4-yl]amino}propanoic acid] | 0.095 | > 20
14 | O=C(O)CCCNc1nc(-c2ccncc2)nc2cnccc12 [Example 97, 4-{[2-(pyridin-4-yl)pyrido[3,4-d]pyrimidin-4-yl]amino}butanoic acid] |  | > 20
15 | CCCNc1nc(-c2cn(C)c3ncccc23)nc2cnccc12 [Example 165, 2-{1-methyl-1H-pyrrolo[2,3-b]pyridin-3-yl}-N-propylpyrido[3,4-d]pyrimidin-4-amine] | > 2.5 | > 20
16 | CC1(Nc2nc(-c3cnoc3)nc3cnccc23)CC1 [Example 152, N-(1-methylcyclopropyl)-2-(1,2-oxazol-4-yl)pyrido[3,4-d]pyrimidin-4-amine] | > 2.5 | > 20
17 | O=C(O)CCCCCNc1nc(-c2ccncc2)nc2cnccc12 [Example 94, 6-{[2-(pyridin-4-yl)pyrido[3,4-d]pyrimidin-4-yl]amino}hexanoic acid] | 1.15 | > 20
18 | CCn1cc(-c2nc(NCC(C)C)c3ccncc3n2)cn1 [Example 195, 2-(1-ethyl-1H-pyrazol-4-yl)-N-(2-methylpropyl)pyrido[3,4-d]pyrimidin-4-amine] | > 10 | 
19 | CC1(Nc2nc(-c3ccn[nH]3)nc3cnccc23)CC1 [Example 176, N-(1-methylcyclopropyl)-2-(1H-pyrazol-5-yl)pyrido[3,4-d]pyrimidin-4-amine] | > 2.5 | > 20
20 | CCN(CC)c1cc(-c2ccncc2Cl)nc2cnccc12 [Example 286, 2-(3-chloropyridin-4-yl)-N,N-diethyl-1,7-naphthyridin-4-amine] | 0.56 | > 20
21 | CN(C)C1(CNc2nc(-c3ccncc3)nc3cnccc23)CCOCC1 [Example 39, N-{[4-(dimethylamino)oxan-4-yl]methyl}-2-(pyridin-4-yl)pyrido[3,4-d]pyrimidin-4-amine] | 0.244 | > 11.6
22 | CC(C)(CN)Nc1nc(-c2cn[nH]c2)nc2cnccc12 [Example 197, N-(1-amino-2-methylpropan-2-yl)-2-(1H-pyrazol-4-yl)pyrido[3,4-d]pyrimidin-4-amine] | 0.023 | 
23 | OCC1(Nc2nc(-c3cn[nH]c3)nc3cnccc23)CCC1 [Example 191, (1-{[2-(1H-pyrazol-4-yl)pyrido[3,4-d]pyrimidin-4-yl]amino}cyclobutyl)methanol] | 0.189 | 
24 | CC1(Nc2nc(-c3ccnc(C#N)c3)nc3cnccc23)CC1 [Example 151, 4-{4-[(1-methylcyclopropyl)amino]pyrido[3,4-d]pyrimidin-2-yl}pyridine-2-carbonitrile] | > 10 | 
25 | CC(Nc1nc(-c2ccnn2C)nc2cnccc12)c1ccncc1 (stereo not shown) [Example 193, 2-(1-methyl-1H-pyrazol-5-yl)-N-[1-(pyridin-4-yl)ethyl]pyrido[3,4-d]pyrimidin-4-amine] | > 10 | 

Further lines, with some results ahead:

Row | IC50 (LATS1) [µM] | SMILES | EC50 [1] [µM]
26 | > 2.5 | CC1(Nc2nc(-c3cnc[nH]3)nc3cnccc23)CC1 [Example 177, 2-(1H-imidazol-5-yl)-N-(1-methylcyclopropyl)pyrido[3,4-d]pyrimidin-4-amine] | > 20
27 | 0.077 | Cc1cnccc1-c1nc(N(C)C(C)C)c2ccncc2n1 [Example 128, N-methyl-2-(3-methylpyridin-4-yl)-N-(propan-2-yl)pyrido[3,4-d]pyrimidin-4-amine] | > 20
28 | 0.001 | CC1(Nc2nc(-c3ccncc3)nc3cnccc23)CCC1 [Example 60, N-(1-methylcyclobutyl)-2-(pyridin-4-yl)pyrido[3,4-d]pyrimidin-4-amine] | 0.44
29 | 0.199 | OCC(CO)(CO)Nc1nc(-c2ccncc2)nc2cnccc12 [Example 36, 2-(hydroxymethyl)-2-{[2-(pyridin-4-yl)pyrido[3,4-d]pyrimidin-4-yl]amino}propane-1,3-diol] | > 20
30 | 0.065 | CC(C)N(C)c1cc(-c2ccncc2F)nc2cnccc12 [Example 277, 2-(3-fluoropyridin-4-yl)-N-methyl-N-(propan-2-yl)-1,7-naphthyridin-4-amine] | > 20
31 | 1.44 | O=C(O)C1CC(Nc2nc(-c3ccncc3)nc3cnccc23)C1 (stereo not shown) [Example 57, (1s,3s)-3-{[2-(pyridin-4-yl)pyrido[3,4-d]pyrimidin-4-yl]amino}cyclobutane-1-carboxylic acid] | > 20
32 | 0.159 | CCCNc1nc(-c2ccncc2C)nc2cnccc12 [Example 164, 2-(3-methylpyridin-4-yl)-N-propylpyrido[3,4-d]pyrimidin-4-amine] | > 20
33 | 0.054 | CN(c1nc(-c2cn[nH]c2)nc2cnccc12)C1(C)CC1 [Example 171, N-methyl-N-(1-methylcyclopropyl)-2-(1H-pyrazol-4-yl)pyrido[3,4-d]pyrimidin-4-amine] | 17.2
34 | 0.009 | CCN(CC)c1cc(-c2ccncc2)nc2cnccc12 [Example 266, N,N-diethyl-2-(pyridin-4-yl)-1,7-naphthyridin-4-amine] | 5.35
35 | 0.459 | CC(C)(CCO)Nc1cc(-c2ccncc2)nc2cnccc12 [Example 260, 3-methyl-3-{[2-(pyridin-4-yl)-1,7-naphthyridin-4-yl]amino}butan-1-ol] | > 20
36 | 1.35 | CC(Nc1nc(-c2ccncc2)nc2cnccc12)c1ccccc1 (stereo not shown) [Example 98, N-(1-phenylethyl)-2-(pyridin-4-yl)pyrido[3,4-d]pyrimidin-4-amine] | 
37 | 4.27 | CC1(Nc2nc(-c3ccnc(C(F)(F)F)c3)nc3cnccc23)CC1 [Example 150, N-(1-methylcyclopropyl)-2-[2-(trifluoromethyl)pyridin-4-yl]pyrido[3,4-d]pyrimidin-4-amine] | 
38 | 0.023 | CC(C)(O)CC(C)(C)Nc1nc(-c2ccncc2Cl)nc2cnccc12 [Example 125, 4-{[2-(3-chloropyridin-4-yl)pyrido[3,4-d]pyrimidin-4-yl]amino}-2,4-dimethylpentan-2-ol] | 8
39 | > 2.5 | Cn1cncc1-c1nc(NC2(C)CC2)c2ccncc2n1 [Example 178, 2-(1-methyl-1H-imidazol-5-yl)-N-(1-methylcyclopropyl)pyrido[3,4-d]pyrimidin-4-amine] | > 20
40 | 0.19 | CC(C)(C)Nc1cc(-c2ccncc2Cl)nc2cnccc12 [Example 285, N-tert-butyl-2-(3-chloropyridin-4-yl)-1,7-naphthyridin-4-amine] | > 20
